The supplement of paper PMC4862054

Tests used:
[1] = test system: MDA-MB-468; assay: drug sensitivity score (DSS), CellTiter-Blue viability (DSS (AUC-based score)); higher = stronger viability inhibition; extreme values may be limits of the assay; conditions: incubation time: 72 h
Method: (§1)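 DSRT with the CellTiter-Blue (resazurin reduction) viability readout, fluorescence 560/590 nm, 72 h incubation. Plates were normalised to DMSO and benzethonium chloride controls. DSS is computed from the area under the fitted dose-response curve (5 or 9 concentrations).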

[2] = test system: HCC1143; assay: as above; conditions: incubation time: 72 h
Method: as §1

[3] = test system: CAL-51; assay: as above; conditions: incubation time: 72 h
Method: as §1

[4] = test system: SK-BR-3; assay: as above; conditions: incubation time: 72 h
Method: as §1

[5] = test system: HDQ-P1; assay: as above; conditions: incubation time: 72 h
Method: as §1

[6] = test system: CAL-148; assay: as above; conditions: incubation time: 72 h
Method: as §1

[7] = test system: CAL-120; assay: as above; conditions: incubation time: 72 h
Method: as §1

[8] = test system: CAL-85-1; assay: as above; conditions: incubation time: 72 h
Method: as §1

[9] = test system: BT-474; assay: normalised viability (% of control), CellTiter-Blue; higher = more viable cells (about 100 = DMSO control); conditions: incubation time: 72 h
Method in brief: (§2)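 After 72 h on compound-loaded 384-well plates, breast cancer cell lines received 2.5 µl CellTiter-Blue reagent for 2 h at 37 °C. Fluorescence at 560/590 nm was scaled per plate so that vehicle was 100 and a positive kill control was 0. The value stands for normalised viability at a single listed concentration of the series.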

[10] = test system: MDA-MB-468; assay: as above; conditions: incubation time: 72 h
Method in brief: as §2

[11] = test system: BT-549; assay: as above; conditions: incubation time: 72 h
Method in brief: as §2

[12] = test system: Hs578T; assay: as above; conditions: incubation time: 72 h
Method in brief: as §2

[13] = test system: MDA-MB-453; assay: as above; conditions: incubation time: 72 h
Method in brief: as §2

[14] = test system: MFM-223; assay: as above; conditions: incubation time: 72 h
Method in brief: as §2

[15] = test system: DU-4475; assay: as above; conditions: incubation time: 72 h
Method in brief: as §2

[16] = test system: SK-BR-3; assay: as above; conditions: incubation time: 72 h
Method in brief: as §2

[17] = test system: HCC1599; assay: as above; conditions: incubation time: 72 h
Method in brief: as §2

[18] = test system: MDA-MB-231; assay: as above; conditions: incubation time: 72 h
Method in brief: as §2

[19] = test system: HDQ-P1; assay: as above; conditions: incubation time: 72 h
Method in brief: as §2

[20] = test system: CAL-148; assay: as above; conditions: incubation time: 72 h
Method in brief: as §2

[21] = test system: HCC1937; assay: as above; conditions: incubation time: 72 h
Method in brief: as §2

[22] = test system: CAL-85-1; assay: as above; conditions: incubation time: 72 h
Method in brief: as §2

[23] = test system: CAL-51; conditions: 72 h
Method in brief: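 Viability of breast cancer cell lines was measured with CellTiter-Blue after 72 h of incubation on compound-loaded 384-well plates. Cells were seeded in 20 µl onto compound dissolved in 5 µl medium, and 2.5 µl reagent was added for 2 h at 37 °C before reading at 560/590 nm. EC50 was fitted from percent-inhibition dose-response data censored at the highest concentration, normalised per plate to vehicle and a positive kill control, with zero drug sensitivity score rows dropped.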

S=c1[nH]cnc2nc[nH]c12 [Mercaptopurine]
Conditions	EC50, CellTiter-Blue viability [µM]	drug sensitivity score
[1]	–	5.53
[2]	–	0
[3]	–	0.87
[4]	–	0
[5]	–	0
[6]	–	0
[7]	–	4.1
[8]	–	0
[23]	3.81	–

normalised viability [%]
Conditions	3 nM	10 nM	30 nM	100 nM	1000 nM	10000 nM
[9]	–	116	–	–	108	112
[10]	–	108	–	–	64.9	69
[11]	–	115	–	–	105	95.6
[12]	–	118	–	–	123	86.7
[13]	116	–	98.1	110	–	–
[14]	–	101	–	–	94	103
[15]	103	–	87.6	87.8	–	–
[16]	–	107	–	–	95.6	63.5
[17]	–	103	–	–	96.3	106
[18]	–	101	–	–	95.9	88.7
[19]	123	–	110	100	–	–
[20]	99.5	–	98.7	92.8	–	–
[21]	–	87.5	–	–	86.9	48.1
[22]	101	–	91.8	103	–	–

Clc1ccc(C(c2ccccc2Cl)C(Cl)Cl)cc1 (stereo unspecified) [Mitotane]
Conditions	drug sensitivity score
[1]	0
[2]	0
[3]	0
[4]	0
[5]	0
[6]	0
[7]	0
[8]	0

normalised viability [%]
Conditions	3 nM	10 nM	30 nM	100 nM	1000 nM	10000 nM
[9]	–	118	–	–	108	130
[10]	–	108	–	–	102	102
[11]	–	83	–	–	93	102
[12]	–	96.6	–	–	86.7	107
[13]	117	–	94.6	103	–	–
[14]	–	90.3	–	–	96	87.9
[15]	109	–	87.5	93.9	–	–
[16]	–	105	–	–	104	82.3
[17]	–	97	–	–	88.2	97.1
[18]	–	85.4	–	–	94.8	119
[19]	117	–	102	100	–	–
[20]	89.2	–	94.2	95.7	–	–
[21]	–	79.9	–	–	91.1	79.4
[22]	92.6	–	86.2	101	–	–

OC[C@H]1O[C@@H](n2cnc3c2N=CNC[C@H]3O)C[C@@H]1O [Pentostatin]
Conditions	drug sensitivity score
[1]	0
[2]	0
[3]	0
[4]	0
[5]	0
[6]	0
[7]	0
[8]	0

normalised viability [%]
Conditions	3 nM	10 nM	30 nM	100 nM	1000 nM	10000 nM
[9]	–	116	–	–	119	111
[10]	–	115	–	–	99.4	104
[11]	–	100	–	–	98.1	85.3
[12]	–	111	–	–	101	105
[13]	105	–	97.7	94.8	–	–
[14]	–	93.5	–	–	93	98.1
[15]	93.4	–	92.7	95	–	–
[16]	–	108	–	–	104	116
[17]	–	88.3	–	–	92.3	93.4
[18]	–	98.5	–	–	102	108
[19]	118	–	99	100	–	–
[20]	116	–	115	110	–	–
[21]	–	80.3	–	–	91.8	84.2
[22]	106	–	96.2	104	–	–
